Experiments:
[1] = system: metastatic colorectal cancer; settings: cited from earlier work
[2] = system: cleaved/activated Notch intracellular domain (NICD); test: NICD staining in Dll4-Fc- or DAPT-treated HDMECs (LECs and BECs); format: cell-based, human; settings: 10 μg/mL, 24 hours
Protocol: FIG. 1. Expression and function of Dll4-Fc. (A) Map of the AAV9-Dll4-Fc vector. (B) Structure of the Dll4-Fc as a dimeric fusion protein of the ECD of mouse Dll4 and Fc region of human immunoglobulin (hFc). (C) Dll4-Fc in the supernatants of AAV9-transfected 293T cells was analyzed by metabolic labeling, immunoprecipitation with Protein A Sepharose and autoradiography after collecting with protein Sepharose from the supernatant of the virus-infected cells. (D) Human dermal microvascular endothelial cells (HDMECs) on glass coverslips stained with Dll4-Fc (red) on ice. After fixation with paraformaldehyde (PFA) and permeabilzation, the cells were stained for Prox-1 (Green) and Hoechst (Blue). Human immunoglobulin G1 (hIgG) was used as a negative control (Red). Note Dll4-Fc in both the Prox-1-positive lymphatic vascular endothelial cells (LECs) and Prox-1-negative cells. (E) Effect of Dll4-Fc on Notch downstream gene expression. HDMECs were treated with 10 μg/mL Dll4-Fc or 10 μg/mL DAPT for 24 hours, and the expression of Hes-1, Hey-2 and NRARP were quantified by qPCR and normalized for the expression of β-actin. The experiment was repeated 4 times. (F) The cells used in (E) were stained for NICD lymphatic vascular endothelial cells (LECs). Prox-1-positive LECs are indicated by arrowheads. (G) Quantification of NICD fluorescence intensity. **:p<0.01. *: p<0.05. […]

BECs on LECs islands = test: Sprout-like structures in 2D culture of LECs and BECs; format: cell-based, human; settings: 1:1 LECs and BECs, 48 hours, 200 ng/ml VEGF-C with or without 10 μg/ml Dll4-Fc
Protocol: 1:1 Mixtures of BECs and LECs were grown on cover slips for 48 hours without VEGF-C to allow them to make LECs islands surrounded by BECs. The cells were then incubated for a further 48 hours with 200 ng/ml VEGF-C (produced by Dr Michael Jeltsch, University of Helsinki) with or without 10 μg/ml recombinant human Dll4-Fc protein (R&D Systems). After fixation with 1% PFA, the samples were immunostained for PECAM-1, a blood vascular endothelial marker, and podoplanin, a lymphatic endothelial marker, to identify BECs and LECs. The number of sprout-like projections of BECs on LECs islands was then counted under a fluorescence microscope.

[3] = system: VEGF-C-induced BaF3/VEGFR-3 cell proliferation; test: BaF3/VEGFR-3 assay; format: cell-based, mouse; settings: supernatant from SK-VEGFR-3(D1-3)-Fc cells
Protocol: The BaF3/VEGFR-3 cells are derived from the interleukin-3 (IL-3) dependent mouse pro-B cell line, BaF3 (Bernardi et al., 1987). The cells express a chimeric receptor consisting of the ECD of human VEGFR-3 fused in-frame to the transmembrane and intracellular domain of mouse erythropoietin receptor (Achen et al., 2000). In IL-3 deficient cell media, the cells can be rescued by the addition of VEGF-C. The serial dilutions of supernatants (50 μl each), as well as positive and negative controls were applied in the wells of 96-well plates in quadruplicate. Subsequently, 20,000 BaF3/VEGFR-3 cells in 50 μl were added and the cells incubated at 37° C. for 48 hours. MTT substrate was added and the cells incubated at 37° C. for 2 hours. Lysis buffer (10% SDS, 10 mM HCl) was added and the plates incubated at 37° C. overnight for colour development. Quantification was done by absorbance at 540 nm.

[4] = system: SK-MeI-103 tumor blood vessels; test: Endomucin and VEGFR-3 staining of SK-MeI-103 tumors; format: in vivo, mouse; settings: SK-MeI-103 tumors expressing the VEGF-C/D trap
Description: FIG. 6. Dll4-Fc suppresses growth of tumors expressing high levels of endogenous VEGF-C. (A) VEGF-C mRNA levels in the indicated tumor cell lines analyzed by qRT-PCR. (B) Effects of Dll4-Fc on the proliferation LNM35 and SK-MeI-103 cells in culture. […] (C) The effect of Dll4-Fc on the growth of LNM35 and SK-MeI-103 tumors. (D) Endomucin staining of LNM35 and SK-MeI-103 tumors. More sprouts were associated with Dll4-Fc treatment (arrows). (E) Quantification of endomucin positive areas in LNM35 and SK-MeI-103 tumors from (D). **:p<0.01. Scale bar 50 μm.
(§1) FIG. 7. Neutralization of VEGF-C/D attenuates the inhibition by Dll4-Fc. (A) The mice were injected by AAV9-Dll4-Fc or AAV9-HSA, followed by subcutaneous implantation of 5×10^6 VEGFR-3(D1-3)-Fc expressing or control retrovirus-transfected SK-MeI-103 cells. *: p<0.01, **: p<0.05. (B) Endomucin staining of the tumors. (C) Quantification of endomucin positive area. […] Scale bar 100 μm.
FIG. 9. Dll4-Fc induced hypersprouting and VEGFR-3 expression in tumors. (A) High magnification fluorescent imaging of blood vessels in the SW480 tumors. Endomucin staining. […] (C) Quantification of VEGFR-3 staining intensity in the blood vessels. **: p<0.01. […]
The immunofluorescent images were captured with a Zeiss digital Axiocam camera connected to a Zeiss AxioPlan 2 microscope. […] The image quantification was carried out using ImageJ software (NIH, Bethesda, Md.).

SK-MeI-103 tumors = test: SK-MeI-103 tumor xenograft growth (control or VEGFR-3(D1-3)-Fc expressing); format: in vivo, mouse; settings: SK-MeI-103, AAV9-HSA treated mice
Protocol: as §1
Six- to eight-week old female nu/nu BALB/c mice were purchased from Harlan Laboratories (Venray, The Netherlands). The National Board for Animal Experiments at the Provincial State Office of Southern Finland approved all the experiments, which were performed in accordance with Finnish legislation regarding the humane care and use of laboratory animals. […] Once the tumors became visible during the first few days, the size of the tumor was measured by a digital caliper every second day. The tumor volume was calculated using the formula: (length)×(width)×(depth)×0.52.
The SK-Mel-103 cells were transfected by an empty retrovirus (control) or by a retrovirus encoding VEGFR-3(D1-3)-Fc and then subcutaneously inoculated into nu/nu mice treated with the AAV9-HSA or the AAV9-Dll4-Fc as described above. […] This difference was statistically significant when measured 10, 12 and 14 days after tumor inoculation. […]

[5] = newly diagnosed, Mayo Clinic or Roswell Park regimen
[6] = subjects progressed following 5-FU therapy

Question: What does the source list for 5-FU/leucovorin?
Answer: median survival [1, 5]: 12-14 months; median time to disease progression [1, 5]: 4-5 months

Question: Which “intensity of NICD” value [2] does the source give for `C[C@H](NC(=O)Cc1cc(F)cc(F)c1)C(=O)N[C@H](C(=O)OC(C)(C)C)c1ccccc1` [DAPT, N—[N-(3,5-difluorophenacetyl)-1-alanyl]-S-phenyl-glycine t-butyl ester] here?
Answer: decreased in both LECs and BECs

Question: Which results are given for `CCc1c2c(nc3ccc(OC(=O)N4CCC(N5CCCCC5)CC4)cc13)-c1cc3c(c(=O)n1C2)COC(=O)[C@]3(O)CC` [irinotecan]?
Answer: prolongation of survival versus best supportive care [1, 6]: 2.8 month; prolongation of survival versus infusional 5-FU [1, 6]: 2.2 month

B1: VEGF-C: Vascular endothelial growth factor-C protein added to endothelial cell cultures (protein)
chain: AHYNTEILKSIDNEWRKTQCMPREVCIDVGKEFGVATNTFFKPPCVSVYRCGGCCNSEGLQCMNTSTSYLSKTLFEITVPLSQGPKPVTISFANHTSCRCMSKLDVYRQVHSIIRR
Question: Which “frequency of sprout-like structures of BECs over LECs islands” value (BECs on LECs islands) does the source give for B1 here?
Answer: tended to increase the sprout-like structure, but the difference was not statistically significant

B2: VEGFR-3(D1-3)-Fc: fusion protein of the immunoglobulin-like domains 1-3 of the extracellular part of human VEGFR-3 and the Fc part of human immunoglobulin G1 (protein)
chain: YSMTPPTLNITEESHVIDTGDSLSISCRGQHPLEWAWPGAQEAPATGDKDSEDTGVVRDCEGTDARPYCKVLLLHEVHANDTGSYVCYYKYIKARIEGTTAASSYVFVRDFEQPFINKPDTLLVNRKDAMWVPCLVSIPGLNVTLRSQSSVLWPDGQEVVWDDRRGMLVSTPLLHDALYLQCETTWGDQDFLSNPFLVHITGNELYDIQLLPRKSLELLVGEKLVLNCTVWAEFNSGVTFDWDYPGKQAERGKWVPERRSQQTHTELSSILTIHNVSQHDLGSYVCKANNGIQRFRESTEVIVHE
modifications: left off: a dimerising Fc or GST
notes: fusion protein of the immunoglobulin-like domains 1-3 of the extracellular part of human VEGFR-3 and the Fc part of human immunoglobulin G1
Question: Which “BaF3/VEGFR-3 cell proliferation induced by VEGF-C” value [3] does the source give for B2 here?
Answer: suppresses

Question: And the “endothelial proliferation / vessel density in tumors” value [4]?
Answer: downregulated endothelial proliferation

Question: And the “growth rates of VEGFR-3(D1-3)-Fc versus empty retrovirus tumors” value (SK-MeI-103 tumors)?
Answer: No difference in growth rates

From patent US20130039930A1, “BIOMARKER FOR SENSITIVITY TO THERAPY WITH A NOTCH INHIBITOR” (priority 2011, published 2013)
